The target in one assay is T1, D2 receptor (Homo sapiens, UniProt P14416).
T1 construct: expressed in transfected cells; membrane homogenates
In words: Dopamine receptor D2 binding affinity, competitive radioligand binding with [3H]methyl-spiperone. Conditions: membranes of recombinant cells, [3H]methyl-spiperone 0.2 nM, 60 min at 37° C. How it is done: Dopamine receptor D2 binding affinity of compounds of formula I was also evaluated. […] After a 60 minute incubation at 37° C., the incubation was terminated by vacuum filtration. The filters were washed with buffer and the filters were counted for radioactivity using liquid scintillation spectrometry. Concentrations ranging from 10^−12 M to 10^−5 M of the test compound were evaluated. […] Binding in the presence of varying concentrations of test compound is expressed as a percentage of specific binding in the absence of test compound. The results are plotted as log % bound versus log concentration of test compound. […] A linear regression line of data points is plotted, from which the IC50 value is determined and the Ki value is determined based upon the following equation: […]

Assay [1] addresses T2, human 5-HT6 (Homo sapiens, UniProt P50406). Briefly: 5-HT6 binding affinity, competitive radioligand binding with [3H]-LSD.
A further assay deals with human alpha1 receptor. Briefly: Alpha1 functional assay (calcium response, LNCaP cells). In kind it is cell-based. Conditions: agonist noradrenaline, 30 min preincubation, Fluo-4NW calcium, read-out: Alpha1 antagonist Kb. An excerpt:
The alpha-1 (α1) adrenergic receptor is coupled to the Gq heterotrimeric G-protein that activates phospholipase C and the phosphatidylinositol (PIP2) signaling pathway. The pathway starts with stimulation of the receptor and further activation of phospholipase C (PLC). Inositol-1,4,5-triphosphate (IP3), which is one of the products of PLC activity, binds to IP3 receptor in smooth ER. Opening of IP3R, which acts as a calcium ion channel, causes an increase in Ca^2+ concentration in cytosol, which can be quantitatively measured using calcium-sensitive fluorescent dyes.
Alpha1 antagonism was measured in LNCaP (Human lymph node carcinoma of the prostate) cells expressing human alpha1 receptor. Cells were dispensed into 96-well assay plates at a density of 30 000 cells per well and, following over night recovery, assayed for calcium response. Tests were performed using Fluo-4NW Calcium Assay Kit (Molecular Probes #F36206) and standard testing procedure for this kit. Cells were preincubated with test compound for 30 min, then endogenous agonist noradrenaline was added. Fluorescence was measured by FLEXstation 3 (Molecular Devices). The apparent dissociation constants (Kb) were calculated by means of GraphPhad Prism 5 software using the modified Cheng Prusoff equation (Kb=IC50/(1+(A/EC50A)), where A=concentration of reference agonist in the assay and EC50A=EC50 value of the reference agonist). For each IC50 determination, agonist dose response curve is run in parallel with the antagonist, on the same experimental plate. Curves maximal and minimal values should be reached in assays, and it is checked if Prism uses proper maximal and minimal values for curve fitting.

The target in assay [2] is T3, short form of human D2 receptor (Homo sapiens, UniProt P14416).
T3 construct: expressed in transfected cells; host or cells: CHO cells
In words: D2 functional assay (cAMP-Glo, CHO cells). In kind it is cell-based. The settings on record: forskolin 10 μM, read-out: D2 antagonist Kb. How it is done: Dopamine D2 receptor inhibits adenylyl cyclase activity. CHO cells (Chinese Hamster Ovary cell-line) transfected with short form of human D2 receptor were used for D2 functional testing. Cells were seeded at a density of 10 000 cells/well in white-walled 96-well plates one day before the experiment. Forskolin at 10 μM was used to increase the intracellular level of cAMP. Compounds were tested according to the procedure from cAMP-Glo™ kit manufacturer's instruction.

The target in another assay is T4, human H1 receptor (Homo sapiens, UniProt P35367).
T4 construct: expressed in transfected cells; host or cells: CHO cells
In words: H1 functional assay (calcium response, CHO cells). Format: cell-based. The settings on record: agonist histamine, 30 min preincubation, Fluo-4NW calcium, read-out: H1 antagonist Kb. From the text: The histamine receptor H1 is linked to an intracellular G-protein (Gq) that activates phospholipase C and the phosphatidylinositol (PIP2) signaling pathway. The pathway starts with stimulation of the receptor and further activation of phospholipase C (PLC). Inositol-1,4,5-triphosphate (IP3), which is one of the products of PLC activity, binds to IP3 receptor in smooth ER. Opening of IP3R, which acts as a calcium ion channel, causes an increase in Ca^2+ concentration in the cytosol, which can be quantitatively measured using calcium-sensitive fluorescent dyes.
H1 antagonism was measured in CHO cells (Chinese Hamster Ovary cell-line) transfected with pcDNA for human H1 receptor. Cells were dispensed into 96-well assay plates at a density of 25 000-30 000 cells per well and, following over night recovery, assayed for calcium response. Tests were performed using Fluo-4NW Calcium Assay Kit (Molecular Probes #F36206) and standard testing procedure for this kit. Cells were preincubated with test compound for 30 min, then endogenous agonist histamine was added. Fluorescence was measured by FLEXstation 3 (Molecular Devices). The apparent dissociation constants (Kb) were calculated by means of GraphPhad Prism 5 software using the modified Cheng Prusoff equation (Kb=IC50/(1+(A/EC50A)), where A=concentration of reference agonist in the assay and EC50A=EC50 value of the reference agonist). For each IC50 determination, agonist dose response curve is run in parallel with the antagonist, on the same experimental plate. Curves maximal and minimal values should be reached in assays and it is checked if Prism uses proper maximal and minimal values for curve fitting.

Assay [3] addresses T2, human 5-HT6. Briefly: 5-HT6 functional assay (calcium response, Chem-10 host cells). Further details: host or cells: Chem-10 host cells, co-expressing a recombinant promiscuous G protein. In kind it is cell-based. Conditions: agonist serotonin, 30 min preincubation, Fluo-4NW calcium, read-out: 5-HT6 antagonist Kb. An excerpt: The serotonin receptor 5-HT6 is a Gs coupled receptor. In the brain it responds to serotonin and other agonists by increasing adenyl cyclase mediated production of cyclic AMP. 5-HT6 can be also functionally tested using different coupling types. Millipore's cloned human 5-HT6-expressing cell line is made in the Chem-10 host, which supports high levels of recombinant 5-HT6 expression on the cell surface and contains optimized levels of a recombinant promiscuous G protein to couple the receptor to the calcium signaling pathway. Cells were thawed, resuspended in media, dispensed into 96-well assay plates at a density of 27500 cells per well and, following over night recovery, assayed for calcium response. Tests were performed using Fluo-4NW Calcium Assay Kit (Molecular Probes #F36206) and standard testing procedure for this kit. Cells were preincubated with test compound for 30 min, then endogenous agonists serotonin was added. Fluorescence was measured by FLEXstation 3 (Molecular Devices). The apparent dissociation constants (Kb) were calculated by means of GraphPhad Prism 5 software using the modified Cheng Prusoff equation (Kb=IC50/(1+(A/EC50A)), where A=concentration of reference agonist in the assay and EC50A=EC50 value of the reference agonist). For each IC50 determination, agonist dose response curve is run in parallel with the antagonist, on the same experimental plate. Curves maximal and minimal values should be reached in assays and it is checked if Prism uses proper maximal and minimal values for curve fitting.

The Ki is the dissociation constant of the complex between target and ligand, obtained from inhibition or displacement. What is called Kb is the affinity of an antagonist, worked out from how it opposes an agonist.

T4 sequence (P35367 whole entry): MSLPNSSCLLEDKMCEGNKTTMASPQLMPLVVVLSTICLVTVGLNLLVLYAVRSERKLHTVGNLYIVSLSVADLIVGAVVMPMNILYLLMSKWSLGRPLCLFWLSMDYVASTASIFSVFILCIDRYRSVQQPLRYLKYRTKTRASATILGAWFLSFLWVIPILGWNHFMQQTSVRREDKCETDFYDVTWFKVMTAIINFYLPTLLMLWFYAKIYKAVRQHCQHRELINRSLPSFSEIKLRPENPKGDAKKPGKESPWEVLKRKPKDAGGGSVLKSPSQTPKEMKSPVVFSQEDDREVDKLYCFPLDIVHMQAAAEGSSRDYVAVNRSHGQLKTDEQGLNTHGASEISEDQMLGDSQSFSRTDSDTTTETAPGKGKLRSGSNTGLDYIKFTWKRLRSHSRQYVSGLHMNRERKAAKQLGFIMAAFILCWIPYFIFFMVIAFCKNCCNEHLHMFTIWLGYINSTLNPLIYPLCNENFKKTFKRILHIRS
T1 sequence (P14416 whole entry): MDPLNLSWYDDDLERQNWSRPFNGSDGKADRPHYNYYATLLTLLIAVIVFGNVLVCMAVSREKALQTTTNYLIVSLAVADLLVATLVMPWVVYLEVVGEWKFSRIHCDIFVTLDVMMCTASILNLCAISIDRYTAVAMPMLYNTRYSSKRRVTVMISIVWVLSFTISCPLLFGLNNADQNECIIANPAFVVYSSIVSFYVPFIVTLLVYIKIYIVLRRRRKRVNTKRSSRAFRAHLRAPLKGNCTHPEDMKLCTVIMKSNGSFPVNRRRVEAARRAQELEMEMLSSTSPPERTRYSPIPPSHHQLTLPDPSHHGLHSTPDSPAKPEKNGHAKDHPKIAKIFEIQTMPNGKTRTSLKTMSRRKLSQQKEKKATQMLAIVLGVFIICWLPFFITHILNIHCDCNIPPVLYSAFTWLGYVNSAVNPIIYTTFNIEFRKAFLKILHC
T3 sequence (P14416 1-414 isoform P14416-2): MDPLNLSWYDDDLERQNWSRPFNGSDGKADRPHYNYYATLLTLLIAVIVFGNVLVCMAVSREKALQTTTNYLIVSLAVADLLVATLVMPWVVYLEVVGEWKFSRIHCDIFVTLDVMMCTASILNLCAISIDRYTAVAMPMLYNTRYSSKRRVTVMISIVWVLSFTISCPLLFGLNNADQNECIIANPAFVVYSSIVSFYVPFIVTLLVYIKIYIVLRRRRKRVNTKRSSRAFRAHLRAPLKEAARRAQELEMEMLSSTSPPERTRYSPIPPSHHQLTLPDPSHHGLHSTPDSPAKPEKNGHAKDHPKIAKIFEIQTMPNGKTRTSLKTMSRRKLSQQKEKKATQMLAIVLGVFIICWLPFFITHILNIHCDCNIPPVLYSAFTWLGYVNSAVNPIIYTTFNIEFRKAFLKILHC
T2 sequence (P50406 whole entry): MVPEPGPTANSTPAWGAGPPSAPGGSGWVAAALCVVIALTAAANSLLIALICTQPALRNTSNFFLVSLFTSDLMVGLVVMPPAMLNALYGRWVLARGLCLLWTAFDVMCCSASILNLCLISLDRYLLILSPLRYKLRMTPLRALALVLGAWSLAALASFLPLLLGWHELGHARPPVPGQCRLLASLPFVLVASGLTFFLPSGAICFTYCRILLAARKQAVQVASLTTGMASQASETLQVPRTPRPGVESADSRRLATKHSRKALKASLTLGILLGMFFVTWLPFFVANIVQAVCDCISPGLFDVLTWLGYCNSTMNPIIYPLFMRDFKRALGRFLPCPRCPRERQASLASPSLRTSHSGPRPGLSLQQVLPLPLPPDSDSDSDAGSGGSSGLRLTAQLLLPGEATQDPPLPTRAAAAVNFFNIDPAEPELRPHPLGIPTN

Turning to `CN1CCN(c2cc(-c3ccc4ccccc4n3)cc(CC3CCOCC3)n2)CC1` [Example 2, 2-[2-(4-Methylpiperazin-1-yl)-6-(oxan-4-ylmethyl)pyridin-4-yl]quinoline], the Ki at D2 receptor was found to be 4100 nM; on human 5-HT6 [1], 39.6 nM. Also, the Kb with human alpha1 receptor was > 2000 nM; in assay [2], > 3500 nM; at human H1 receptor, 462 nM; at human 5-HT6 [3], 204 nM.

`CN1CCN(c2cc(-c3ccccn3)cc(CC3CCOCC3)n2)CC1` [Example 3, 1-Methyl-4-[6-(oxan-4-ylmethyl)-4-(pyridin-2-yl)pyridin-2-yl]piperazine]: the Ki on D2 receptor came out at 1180 nM; at human 5-HT6 [1], 22.2 nM. The Kb in the assay with human alpha1 receptor was 83.8 nM; in assay [2], > 2000 nM; on human H1 receptor, > 5000 nM; at human 5-HT6 [3] it was 81.8 nM.

On to `CN1CCN(c2cc(-c3cscn3)cc(CC3CCOCC3)n2)CC1` [Example 4, 1-Methyl-4-[6-(oxan-4-ylmethyl)-4-(1,3-thiazol-4-yl)pyridin-2-yl]-piperazine], for which the Ki at D2 receptor was > 10000 nM; at human 5-HT6 [1], 14.3 nM. Further, the Kb in the assay on human alpha1 receptor is 203 nM; in assay [2] it was 781 nM; at human H1 receptor it was > 5000 nM; on human 5-HT6 [3], 1.97 nM.

Turning to `COc1ccc(-c2cc(CC3CCOCC3)nc(N3CCN(C)CC3)c2)c(F)c1` [Example 5, 1-[4-(2-Fluoro-4-methoxyphenyl)-6-(oxan-4-ylmethyl)pyridin-2-yl]-4-methylpiperazine], the Ki at D2 receptor is 1250 nM; on human 5-HT6 [1], 22.8 nM. For the same compound, the Kb in the assay on human alpha1 receptor is 171 nM; in assay [2] it was > 2000 nM; on human H1 receptor, 1230 nM; at human 5-HT6 [3], 5.06 nM.

As for `COc1ccc(-c2cc(CC3CCOCC3)nc(N3CCC(N)CC3)c2)cc1` [Example 6, 1-[4-(4-Methoxyphenyl)-6-(oxan-4-ylmethyl)pyridin-2-yl]piperidin-4-amine], the Ki on D2 receptor was > 10000 nM; on human 5-HT6 [1], 38.8 nM. In addition, the Kb in the assay with human alpha1 receptor was > 2000 nM; in assay [2], > 3500 nM; at human H1 receptor, > 1000 nM; on human 5-HT6 [3] it was > 1000 nM.

For `COc1ccc(-c2cc(C(C)C3CCOCC3)nc(N3CCN(C)CC3)c2)cc1` (stereo not drawn) [Example 7, 1-[4-(4-Methoxyphenyl)-6-[1-(oxan-4-yl)ethyl]pyridin-2-yl]-4-methyl-piperazine], the Ki on D2 receptor was > 10000 nM; on human 5-HT6 [1] it was 12.2 nM. Besides, the Kb with human alpha1 receptor is 29.3 nM; in assay [2], 340 nM; at human H1 receptor, > 2000 nM; at human 5-HT6 [3], 0.01 nM.

As to `COc1ccc(-c2cc(CC3CCOCC3)nc(N3CCNC(C)(C)C3)c2)cc1` [Example 8, 1-[4-(4-Methoxyphenyl)-6-(oxan-4-ylmethyl)pyridin-2-yl]-3,3-dimethylpiperazine], the results for the Ki on D2 receptor and at human 5-HT6 [1] were > 10000 nM and 36.1 nM, respectively. Besides, the Kb in the assay with human alpha1 receptor is 1600 nM; in assay [2] it was > 3500 nM; at human H1 receptor, 19.4 nM; at human 5-HT6 [3], 4.7 nM.

The record behind these values is patent publication US20160009697A1, “PYRIDINE DERIVATIVES AS 5-HT6 RECEPTOR ANTAGONISTS” (Selvita S.A., priority 2013, published 2016).
